In ChEMBL document CHEMBL5728717, “Amino pyrimidine compound for inhibiting protein tyrosine kinase activity” (2021):
pIC50: −log10 of the molar value.

Molecular target: Epidermal growth factor receptor (Homo sapiens, UniProt P00533)
Assay: Kinase Inhibition Assay: Reagents and Materials:WT EGFR (Carna, Cat. No. 08-115), EGFR [L858R] (Carna, Cat. No. 08-502), EGFR [L858R/T790M] (Carna, Cat. No. 08-510), ATP (Sigma, Cat. No. A7699-1G), DMSO (Sigma, Cat. No. D2650), 96-well plate (Corning, Cat. No. 3365), 384-well plate (Greiner, Cat. No. 784076), HTRF Kinase TK Kit (Cisbio, Cat. No. 62TK0PEJ), Erlotinib (Selleckchem, Cat. No. S7787) …
Description: Then, it was diluted in DMSO with a 3-fold series gradient dilution for 10 times. […] The corresponding substrate and ATP were added and reacted at room temperature for 20 minutes (in which a negative and a positive control were set: the negative control is blank and the positive control is erlotinib). […] The inhibitions of the enzyme activity by the compounds at different concentrations were then fitted using Graphpad 5.0 software according to the four-parameter equation, and the IC50 values were calculated.

Epidermal growth factor receptor, sequence (P00533 25-1210 limits assumed, stated change not applied): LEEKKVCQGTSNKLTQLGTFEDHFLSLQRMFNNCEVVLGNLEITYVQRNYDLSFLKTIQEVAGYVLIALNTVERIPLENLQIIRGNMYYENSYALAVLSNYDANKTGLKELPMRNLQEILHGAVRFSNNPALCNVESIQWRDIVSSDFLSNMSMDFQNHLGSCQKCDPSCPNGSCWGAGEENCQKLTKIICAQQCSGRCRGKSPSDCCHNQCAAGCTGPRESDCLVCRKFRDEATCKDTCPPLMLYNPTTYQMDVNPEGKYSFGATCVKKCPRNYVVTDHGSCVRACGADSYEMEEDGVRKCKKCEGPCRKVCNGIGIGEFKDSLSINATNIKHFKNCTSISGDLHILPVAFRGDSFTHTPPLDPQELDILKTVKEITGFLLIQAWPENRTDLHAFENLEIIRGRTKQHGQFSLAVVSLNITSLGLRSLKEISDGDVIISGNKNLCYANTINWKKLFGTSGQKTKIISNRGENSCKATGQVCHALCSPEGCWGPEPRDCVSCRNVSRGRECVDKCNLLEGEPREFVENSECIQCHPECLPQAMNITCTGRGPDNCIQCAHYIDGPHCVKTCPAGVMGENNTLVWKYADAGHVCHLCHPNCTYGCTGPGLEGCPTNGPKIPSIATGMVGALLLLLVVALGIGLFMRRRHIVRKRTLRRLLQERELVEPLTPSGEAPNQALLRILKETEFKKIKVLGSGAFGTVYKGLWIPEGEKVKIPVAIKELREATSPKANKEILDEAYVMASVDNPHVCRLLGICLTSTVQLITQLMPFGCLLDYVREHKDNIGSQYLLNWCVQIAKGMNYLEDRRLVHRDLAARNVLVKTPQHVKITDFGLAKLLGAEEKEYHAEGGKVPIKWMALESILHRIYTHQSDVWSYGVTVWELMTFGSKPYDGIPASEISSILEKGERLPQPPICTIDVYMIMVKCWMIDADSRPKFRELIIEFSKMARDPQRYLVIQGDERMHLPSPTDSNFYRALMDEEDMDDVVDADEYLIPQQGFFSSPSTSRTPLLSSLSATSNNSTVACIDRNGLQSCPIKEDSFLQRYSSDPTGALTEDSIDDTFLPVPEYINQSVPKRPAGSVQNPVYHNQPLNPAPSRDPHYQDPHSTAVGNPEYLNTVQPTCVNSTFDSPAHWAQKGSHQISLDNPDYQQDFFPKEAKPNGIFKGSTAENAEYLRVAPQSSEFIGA

## C=CC(=O)Nc1cc(Nc2nccc(-c3cc(F)c4nc(C)n(C(C)C)c4c3)n2)c(OC)cc1N1CCC(OC)CC1
  pIC50: < 7.00
